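Grown in 96-well plates, cells were treated for 48 hours with each compound at five concentrations. Insufficient inhibition: endpoint recorded as highest concentration tested. TGI: concentration producing complete growth inhibition.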
Legend:
Experiment in all cases: growth of human tumour cells (NCI), 48 h
LOX IMVI melanoma = tested on: LOX IMVI melanoma
UACC-257 melanoma = tested on: UACC-257 melanoma
U251 CNS = tested on: U251 CNS
NCI-H522 lung = tested on: NCI-H522 lung
OVCAR-4 ovarian = tested on: OVCAR-4 ovarian
RXF 393 renal = tested on: RXF 393 renal
OVCAR-5 ovarian = tested on: OVCAR-5 ovarian
T-47D breast = tested on: T-47D breast
CCRF-CEM leukemia = tested on: CCRF-CEM leukemia
SR leukemia = tested on: SR leukemia

| SMILES | TGI (LOX IMVI melanoma) [µM] | TGI (UACC-257 melanoma) [µM] | TGI (U251 CNS) [µM] | TGI (NCI-H522 lung) [µM] | TGI (OVCAR-4 ovarian) [µM] | TGI (RXF 393 renal) [µM] | TGI (OVCAR-5 ovarian) [µM] | TGI (T-47D breast) [µM] | TGI (CCRF-CEM leukemia) [µM] | TGI (SR leukemia) [µM] |
| --- | --- | --- | --- | --- | --- | --- | --- | --- | --- | --- |
| C/C(=C/CO[Si](C)(C)C(C)(C)C)C(=O)N(C)c1ccccc1I | 31.8 | 26.4 | 28.6 | 31.5 | 31.2 | 31.9 | 27.8 | 35.9 | 43 | 51.7 |
| CCOC(=O)c1ccc(C(=O)C(C(C)=O)C(=O)OC(C)(C)C)n1C (stereo not given) | > 100 | > 100 | > 100 | > 100 | > 100 | > 100 | > 100 | > 100 | > 100 | > 100 |
| CCOC(=O)c1nc2c3c(ncn2n1)Oc1c(c(-c2ccccc2)nn1-c1ccccc1)C3c1ccc(Cl)cc1 (stereo not given) | > 100 | > 100 | > 100 | > 100 | > 100 | > 100 | > 100 | > 100 | > 100 | > 100 |
| CC(CCC(=O)O)[C@H]1CCC2[C@H]3C(CC[C@@]21C)[C@@]1(C)CCC(O)C[C@H]1C[C@@H]3O (stereo not given in full) | > 100 | > 100 | > 100 | > 100 | > 100 | > 100 | > 100 | > 100 | > 100 | > 100 |
| C=CCC(CNC(=O)OCc1ccccc1)O[Si](C)(C)C(C)(C)C (stereo not given) | 47.1 | 83.7 | 79.5 | 64.8 | > 100 | 47.6 | 71.6 | > 100 | > 100 | 46.4 |
| COC(=O)[C@H](C)N1C(=O)N[C@@H](C(C)C)C1=O | > 100 | > 100 | > 100 | > 100 | > 100 | > 100 | > 100 | > 100 | > 100 | > 100 |

Source: PubChem BioAssay (NCI)
